Where a name gives a salt, the structure may show the parent alone.
Columns and labels:
Lp(a) = assay: Sandwich immunoassay (method 1.2) of serum after prior art delipidating pretreatment, tracer uptake; assay type: binding
Description: (§1) 50 μl from the reaction mixture of step 1 was diluted according to the dilution scheme 1/18-1/54-1/162-[…]-1/1458-1/4374. Each dilution was mixed with 50 μl of mouse antiapo(a) ^125 I and incubated for 1 hour at RT, whereupon 50 μl of goat antiapo(a) was added. The reaction mixture was kept standing for 0.5 hours at RT. This was followed by precipitation of the resultant complex with the aid of solid-phase-bound anti-antibodies (2 ml Decanting Suspension, 0.5 hr and RT). The suspension was centrifuged, the supernatant then being removed by decantation and discarded.
Equal volumes of serum and pretreating solution were mixed and incubated for 2-16 hours, whereupon the sample was diluted 20-fold with phosphate buffer I. The testing method according to 1.2 was then applied to the reaction solutions. […]
The results are presented as % binding of total amount of tracer added

apo(a) = assay: Immunoassay (sandwich, mouse antiapo(a) 125I) of apo(a) in serum after pretreatment at acidic and alkaline pH; assay type: binding; details: for apo(a) concentration read off after acidic pretreatment: acidic pH, 20 h; for apo(a) concentration read off after acidic pretreatment / apo(a) concentration read off after alkaline pretreatment: 1:1 with serum, RT; for apo(a) concentration read off after alkaline pretreatment: alkaline pH
Description: (a) Alkaline pH. Equal volumes of serum and 0.13 M NaOH were mixed and incubated at room temperature (=RT) for 2 hours, whereupon phosphate buffer I was added up to an 18-fold dilution of the sample.
(b) Acidic pH. Equal volumes of serum and 0.2 M HCl were mixed and incubated at RT for 20 hours, whereupon phosphate buffer I was added up to an 18-fold dilution of the sample.
(c) Alkaline buffer system. Equal volumes of serum and 0.2 M trisodium phosphate were mixed and incubated at RT for 1 hour, whereupon phosphate buffer I was added up to an 18-fold dilution of the sample.
as §1
In separation experiments goat antiapo(a) was replaced with sheep antiapo(a) and monoclonal antiapo(a). These antibodies were tested in soluble as well as in solid-phase-bound form. Decanting suspension was excluded when solid-phase-bound antiapo(a)s were used.

[1] = dilution 1/20, first concentration: SDS 0.5%, urea 4 M, guanidine HCl 2 M, Triton 2%, Renex 1%, lipase 500 U/l
[2] = dilution 1/20, second concentration: SDS 2.5%, urea 6 M, guanidine HCl 6 M, Triton 10%, Renex 5%, lipase 100 U/l
[3] = dilution 1/60, first concentration: SDS 0.5%, urea 4 M, guanidine HCl 2 M, Triton 2%, Renex 1%, lipase 500 U/l
[4] = dilution 1/60, second concentration: SDS 2.5%, urea 6 M, guanidine HCl 6 M, Triton 10%, Renex 5%, lipase 100 U/l
[5] = dilution 1/180, first concentration: SDS 0.5%, urea 4 M, guanidine HCl 2 M, Triton 2%, Renex 1%, lipase 500 U/l
[6] = dilution 1/180, second concentration: SDS 2.5%, urea 6 M, guanidine HCl 6 M, Triton 10%, Renex 5%, lipase 100 U/l
[7] = dilution 1/540, first concentration: SDS 0.5%, urea 4 M, guanidine HCl 2 M, Triton 2%, Renex 1%, lipase 500 U/l
[8] = dilution 1/540, second concentration: SDS 2.5%, urea 6 M, guanidine HCl 6 M, Triton 10%, Renex 5%, lipase 100 U/l

SMILES	% binding of total amount of tracer added (uptake) (Lp(a); [1]) [%]	% binding of total amount of tracer added (uptake) (Lp(a); [2]) [%]	% binding of total amount of tracer added (uptake) (Lp(a); [3]) [%]	% binding of total amount of tracer added (uptake) (Lp(a); [4]) [%]	% binding of total amount of tracer added (uptake) (Lp(a); [5]) [%]	% binding of total amount of tracer added (uptake) (Lp(a); [6]) [%]	% binding of total amount of tracer added (uptake) (Lp(a); [7]) [%]	% binding of total amount of tracer added (uptake) (Lp(a); [8]) [%]	apo(a) concentration read off after acidic pretreatment (apo(a); 0.2 M pretreating solution) [U/l]	other results
N=C(N)N [GUANIDINE HCl, Guanidine - HCl]	10.0	10.7	5.6	6.3	3.6	4.1	3.1	3.3		
O=P(O)(O)O [H3 PO4]									28.4	
Cl [HCl, hydrochloric acid]									41.0	
O=P([O-])([O-])[O-].[Na+].[Na+].[Na+] [Na3 PO4, trisodium phosphate]										apo(a) concentration read off after alkaline pretreatment (apo(a); 0.2 M pretreating solution, 1 h): 354 U/l
[Na+].[OH-] [NaOH, sodium hydroxide]										uptake on increased treatment time (apo(a); 0.13 M NaOH, longer treatment time, given dilution): the uptake was lowered; apo(a) concentration read off after alkaline pretreatment (apo(a); 0.13 M pretreating solution, 2 h): 333 U/l; effectiveness of pretreatment (apo(a); sodium hydroxide solution versus hydrochloric acid solution): far more effective than a hydrochloric acid solution
CCCCCCCCCCCCOS(=O)(=O)[O-].[Na+] [SDS, sodium dodecyl sulfate]	10.1	18.8	5.3	13.3	3.6	7.0	3.0	4.5		
NC(N)=O [UREA, Urea]	10.0	9.6	5.4	5.3	3.6	3.8	3.2	3.1		
O=C(O)CC(O)(CC(=O)O)C(=O)O [citric acid]									25.2	

Source: patent US4877746A, “Methods of carrying out assays for lipoproteins and apolipoproteins” (Pharmacia AB, priority 1985, dated 1989)
